A value given as a limit tells only on which side of the number the result lay.

GST tagged IRAK-4, sequence (Q9NWZ3 whole entry): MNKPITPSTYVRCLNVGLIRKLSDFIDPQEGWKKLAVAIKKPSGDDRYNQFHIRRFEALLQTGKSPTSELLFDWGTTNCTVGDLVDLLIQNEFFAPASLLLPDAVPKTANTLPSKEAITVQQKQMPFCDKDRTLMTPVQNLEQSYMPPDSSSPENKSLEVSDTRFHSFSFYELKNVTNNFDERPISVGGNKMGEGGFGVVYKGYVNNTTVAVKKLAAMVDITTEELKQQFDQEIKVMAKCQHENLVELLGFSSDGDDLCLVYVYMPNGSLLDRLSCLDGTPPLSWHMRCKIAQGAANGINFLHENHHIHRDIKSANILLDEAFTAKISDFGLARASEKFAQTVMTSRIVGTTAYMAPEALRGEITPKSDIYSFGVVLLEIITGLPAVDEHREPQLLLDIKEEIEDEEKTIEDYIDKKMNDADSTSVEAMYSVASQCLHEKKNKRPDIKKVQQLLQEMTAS

One assay addresses GST tagged IRAK-4 (Homo sapiens (Human), UniProt Q9NWZ3). Description: IRAK-4 Kinase Assay (IMAP fluorescence polarization). It is filed as biochemical. Conditions: 100 μM ATP, 30 minutes at 25° C. The method in brief:
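Activity was read by IMAP fluorescence polarization, where phosphopeptide binding to M(III) nanoparticles raises FP. The 30-minute, 25° C reaction used 100 μM ATP, 100 nM RP7030 substrate and 0.5 nM GST-IRAK-4 in pH 7.2 Tris buffer with MgCl2, DTT and Tween 20.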
(In general: Fluorescence polarisation rises when a labelled molecule tumbles more slowly, as on binding a larger partner.)
As for `Cc1ccc(-n2nc(C3CCN(C4CCC(N(C)S(C)(=O)=O)CC4)CC3)cc2NC(=O)c2cnn3cccnc23)cc1` (stereo not drawn) [Example 251, N-[3-(1-{4-[methyl(methylsulfonyl)amino]cyclohexyl}piperidin-4-yl)-1-(4-methylphenyl)-1H-pyrazol-5-yl]pyrazolo[1,5-a]pyrimidine-3-carboxamide], the IC50 (commonly the concentration that gives 50% inhibition) was less than 0.1 µM.

As for `Cc1ccc(-n2nc(C3CCN(C4CCC(NS(C)(=O)=O)CC4)CC3)cc2NC(=O)c2cnn3cccnc23)cc1` (stereo not drawn) [Example 252, N-[1-(4-methylphenyl)-3-(1-{4-[(methylsulfonyl)amino]cyclohexyl}piperidin-4-yl)-1H-pyrazol-5-yl]pyrazolo[1,5-a]pyrimidine-3-carboxamide], the IC50 was less than 0.1 µM.

The compound `Cc1ccc(-n2nc(C3CCN(C4CCC(C#N)CC4)CC3)cc2NC(=O)c2cnn3cccnc23)cc1` (stereo not drawn) [Example 253, N-{3-[1-(4-cyanocyclohexyl)piperidin-4-yl]-1-(4-methylphenyl)-1H-pyrazol-5-yl}pyrazolo[1,5-a]pyrimidine-3-carboxamide] registered an IC50 of less than 0.1 µM.

Regarding `Cc1ccc(-n2nc(C3CCN(C4CCC5CC54)CC3)cc2NC(=O)c2cnn3cccnc23)cc1` (stereo not drawn) [Example 254, N-[3-(1-bicyclo[3.1.0]hex-2-ylpiperidin-4-yl)-1-(4-methylphenyl)-1H-pyrazol-5-yl]pyrazolo[1,5-a]pyrimidine-3-carboxamide], the IC50 is less than 0.1 µM.

As to `Cc1ccc(-n2nc(C3CCN(C4CCC5(CCC(=O)N5)CC4)CC3)cc2NC(=O)c2cnn3cccnc23)cc1` (stereo not drawn) [Example 255, N-{1-(4-methylphenyl)-3-[1-(2-oxo-1-azaspiro[4.5]dec-8-yl)piperidin-4-yl]-1H-pyrazol-5-yl}pyrazolo[1,5-a]pyrimidine-3-carboxamide], the IC50 was less than 0.1 µM.

The compound `Cc1ccc(-n2nc(C3CCN(C4CC(C(C)(C)C)C4)CC3)cc2NC(=O)c2cnn3cccnc23)cc1` (stereo not drawn) [Example 256, N-{3-[1-(3-tert-butylcyclobutyl)piperidin-4-yl]-1-(4-methylphenyl)-1H-pyrazol-5-yl}pyrazolo[1,5-a]pyrimidine-3-carboxamide] displayed an IC50 of less than 0.1 µM.

`Cc1ccc(-n2nc(C3CCN(C4CC5(CCCC5)C4)CC3)cc2NC(=O)c2cnn3cccnc23)cc1` [Example 257, N-[1-(4-methylphenyl)-3-(1-spiro[3.4]oct-2-ylpiperidin-4-yl)-1H-pyrazol-5-yl]pyrazolo[1,5-a]pyrimidine-3-carboxamide]: the IC50 was less than 0.1 µM.

Compound `Cc1ccc(-n2nc(C3CCN(C4CC(C#N)C4)CC3)cc2NC(=O)c2cnn3cccnc23)cc1` (stereo not drawn) [Example 258, N-{3-[1-(3-cyanocyclobutyl)piperidin-4-yl]-1-(4-methylphenyl)-1H-pyrazol-5-yl}pyrazolo[1,5-a]pyrimidine-3-carboxamide] had an IC50 of less than 0.1 µM.

`Cc1ccc(-n2nc(C3CCN(C4CCC(N(C)S(C)(=O)=O)CC4)CC3)cc2NC(=O)c2cnn3cccnc23)nc1` (stereo not drawn) [Example 262, N-[3-(1-{4-[methyl(methylsulfonyl)amino]cyclohexyl}piperidin-4-yl)-1-(5-methylpyridin-2-yl)-1H-pyrazol-5-yl]pyrazolo[1,5-a]pyrimidine-3-carboxamide] gave an IC50 of less than 0.1 µM.

With `Cc1ccc(-n2nc(C3CCN(C4CCC(NS(C)(=O)=O)CC4)CC3)cc2NC(=O)c2cnn3cccnc23)nc1` (stereo not drawn) [Example 263, N-[1-(5-methylpyridin-2-yl)-3-(1-{4-[(methylsulfonyl)amino]cyclohexyl]piperidin-4-yl)-1H-pyrazol-5-yl}pyrazolo[1,5-a]pyrimidine-3-carboxamide], the IC50 was less than 0.1 µM.

`Cc1ccc(-n2nc(C3CCN(C4CCCOC4)CC3)cc2NC(=O)c2cnn3cccnc23)nc1` (stereo not drawn) [Example 264, N-{1-(5-methylpyridin-2-yl)-3-[1-(tetrahydro-2H-pyran-3-yl)piperidin-4-yl]-1H-pyrazol-5-yl}pyrazolo[1,5-a]pyrimidine-3-carboxamide] yielded an IC50 of less than 0.1 µM.

Compound `Cc1ccc(-n2nc(C3CCN(C4CCC(C#N)CC4)CC3)cc2NC(=O)c2cnn3cccnc23)nc1` (stereo not drawn) [Example 265, N-{3-[1-(4-cyanocyclohexyl)piperidin-4-yl]-1-(5-methylpyridin-2-yl)-1H-pyrazol-5-yl}pyrazolo[1,5-a]pyrimidine-3-carboxamide] yielded an IC50 of less than 0.1 µM.

`Cc1ccc(-n2nc(C3CCN(C4CCN(c5ccc(F)cc5)C4)CC3)cc2NC(=O)c2cnn3cccnc23)nc1` (stereo not drawn) [Example 266, N-[3-{1-[1-(4-fluorophenyl)pyrrolidin-3-yl]piperidin-4-yl]-1-(5-methylpyridin-2-yl)-1H-pyrazol-5-yl}pyrazolo-[1,5-a]pyrimidine-3-carboxamide] registered an IC50 of less than 0.1 µM.

In turn, `Cc1ccc(-n2nc(C3CCN(C4CCN(C5CC5)CC4)CC3)cc2NC(=O)c2cnn3cccnc23)nc1` [Example 267, N-[3-(1′-cyclopropyl-1,4′-bipiperidin-4-yl)-1-(5-methylpyridin-2-yl)-1H-pyrazol-5-yl]pyrazolo[1,5-a]pyrimidine-3-carboxamide] had an IC50 of less than 0.1 µM.

`Cc1ccc(-n2nc(C3CCN(C4CCc5ccncc5C4)CC3)cc2NC(=O)c2cnn3cccnc23)nc1` (stereo not drawn) [Example 268, N-{1-(5-methylpyridin-2-yl)-3-[1-(5,6,7,8-tetrahydroisoquinolin-7-yl)piperidin-4-yl]-1H-pyrazol-5-yl}pyrazolo[1,5-a]pyrimidine-3-carboxamide] had an IC50 of less than 0.1 µM.

Take `Cc1ccc(-n2nc(C3CCN(C4CC(N(C)C)C4)CC3)cc2NC(=O)c2cnn3cccnc23)nc1` (stereo not drawn) [Example 269, N-[3-{1-[3-(dimethylamino)cyclobutyl]piperidin-4-yl}-1-(5-methylpyridin-2-yl)-1H-pyrazol-5-yl]pyrazolo[1,5-a]pyrimidine-3-carboxamide]: the IC50 was less than 0.1 µM.

Staying with this assay, now noted: 100 μM ATP, 30 minutes at 25° C.; μM.
Take `COCCOC(=O)N1CC(N2CCC(c3cc(NC(=O)c4cnn5cccnc45)n(-c4ccc(C)cc4)n3)CC2)C1` [Example 242, 2-methoxyethyl 3-(4-{1-(4-methylphenyl)-5-[(pyrazolo[1,5-a]pyrimidin-3-ylcarbonyl)amino]-1H-pyrazol-3-yl}piperidin-1-yl)azetidine-1-carboxylate]: the IC50 was less than 1 µM.

For `CCS(=O)(=O)N1CC(N2CCC(c3cc(NC(=O)c4cnn5cccnc45)n(-c4ccc(C)cc4)n3)CC2)C1` [Example 243, N-[3-{1-[1-(ethylsulfonyl)azetidin-3-yl]piperidin-4-yl}-1-(4-methylphenyl)-1H-pyrazol-5-yl]pyrazolo[1,5-a]pyrimidine-3-carboxamide], the IC50 is less than 1 µM.

The compound `Cc1ccc(-n2nc(C3CCN(C4CN(S(C)(=O)=O)C4)CC3)cc2NC(=O)c2cnn3cccnc23)cc1` [Example 244, N-[1-(4-methylphenyl)-3-{1-[1-(methylsulfonyl)azetidin-3-yl]piperidin-4-yl}-1H-pyrazol-5-yl]pyrazolo[1,5-a]pyrimidine-3-carboxamide] returned an IC50 of less than 1 µM.

With `Cc1ccc(-n2nc(C3CCN(C4CN(S(=O)(=O)C5CC5)C4)CC3)cc2NC(=O)c2cnn3cccnc23)cc1` [Example 245, N-[3-{1-[1-(cyclopropylsulfonyl)azetidin-3-yl]piperidin-4-yl]-1-(4-methylphenyl)-1H-pyrazol-5-yl}pyrazolo[1,5-a]pyrimidine-3-carboxamide], the IC50 is less than 1 µM.

`Cc1ccc(-n2nc(C3CCN(C4CN(S(=O)(=O)C(C)C)C4)CC3)cc2NC(=O)c2cnn3cccnc23)cc1` [Example 246, N-[3-(1-{1-[(1-methylethyl)sulfonyl]azetidin-3-yl}piperidin-4-yl)-1-(4-methylphenyl)-1H-pyrazol-5-yl]pyrazolo[1,5-a]pyrimidine-3-carboxamide] yielded an IC50 of less than 1 µM.

For the compound `Cc1ccc(-n2nc(C3CCN(C4CN(S(=O)(=O)CF)C4)CC3)cc2NC(=O)c2cnn3cccnc23)cc1` [Example 247, N-[3-(1-{1-[(fluoromethyl)sulfonyl]azetidin-3-yl]piperidin-4-yl)-1-(4-methylphenyl)-1H-pyrazol-5-yl}pyrazolo[1,5-a]pyrimidine-3-carboxamide], the IC50 is less than 1 µM.

As to `CC(=O)N1CC(N2CCC(c3cc(NC(=O)c4cnn5cccnc45)n(-c4ccc(C)cc4)n3)CC2)C1` [Example 248, N-{3-[1-(1-acetylazetidin-3-yl)piperidin-4-yl]-1-(4-methylphenyl)-1H-pyrazol-5-yl}pyrazolo pyrimidine-3-carboxamide], the IC50 is less than 1 µM.

`CCC(=O)N1CC(N2CCC(c3cc(NC(=O)c4cnn5cccnc45)n(-c4ccc(C)cc4)n3)CC2)C1` [Example 249, N-{1-(4-methylphenyl)-3-[1-(1-propanoylazetidin-3-yl)piperidin-4-yl]-1H-pyrazol-5-yl}pyrazolo[1,5-a]pyrimidine-3-carboxamide]: the IC50 was less than 1 µM.

In turn, `Cc1ccc(-n2nc(C3CCN(C4CCC(F)(F)CC4)CC3)cc2NC(=O)c2cnn3cccnc23)cc1` [Example 259, N-{3-[1-(4,4-difluorocyclohexyl)piperidin-4-yl]-1-(4-methylphenyl)-1H-pyrazol-5-yl}pyrazolo[1,5-a]pyrimidine-3-carboxamide] yielded an IC50 of less than 1 µM.

Take `Cc1ccc(-n2nc(C3CCN(C(C)CC(F)(F)F)CC3)cc2NC(=O)c2cnn3cccnc23)cc1` (stereo not drawn) [Example 260, N-{1-(4-methylphenyl)-3-[1-(3,3,3-trifluoro-1-methylpropyl)piperidin-4-yl]-1H-pyrazol-5-yl}pyrazolo[1,5-a]pyrimidine-3-carboxamide]: the IC50 is less than 1 µM.

For `Cc1ccc(-n2nc(C3CCN(C4CN(C(=O)OC(C)(C)C)C4)CC3)cc2NC(=O)c2cnn3cccnc23)cc1` [Example 261, tert-butyl 3-(4-{1-(4-methylphenyl)-5-[(pyrazolo[1,5-a]pyrimidin-3-ylcarbonyl)amino]-1H-pyrazol-3-yl}piperidin-1-yl)azetidine-1-carboxylate], the concentration for half-maximal inhibition (IC50) was less than 1 µM.

Source of the values: patent US9169260B2 (MERCK SHARP & DOHME CORP., priority 2011, dated 2015).
